Source: ChEMBL document CHEMBL3244389, “Cephalosporin degradations” (J Med Chem, 1977)

Legend:
[1] = Retardation factor of the compound in deionized water at 1 g at pH 3.3 after 90 mins by TLC analysis; type: physicochemical; details: pH 3.3, 1.5 h
[2] = Drug degradation in oxygen-18 enriched water assessed as 5,3-formyl-3,6-dihydro-6-phenyl-2,5(lH,4H)-pyrazinedione level at 60 mg by mass spectroscopic analysis; details: in vivo
[3] = Drug degradation in deionized water assessed as 3-hydroxy-4-methyl-2(5H)-thiophenone level at 100 mg at pH 3.3 after 90 mins by IR/TLC analysis; type: physicochemical; details: pH 3.3, 1.5 h
[4] = Drug degradation in deionized water assessed as 5,3-formyl-3,6-dihydro-6-phenyl-2,5(lH,4H)-pyrazinedione level at 100 mg at pH 3.3 after 90 mins by IR/TLC analysis; type: physicochemical; details: pH 3.3, 1.5 h
[5] = Drug recovery in Purdue-Wistar rat feces at 1.6 mg/ml, po after 24 hrs; details: faeces
[6] = Drug recovery in ICR mouse feces at 1.6 mg/ml, po after 24 hrs; details: faeces
[7] = test system: Mus musculus; assay: Toxicity in po dosed ICR mouse; type: organism-based; details: in vivo

O=CC1NC(=O)C(c2ccccc2)NC1=O (stereo not drawn)
Rf [1]: 0.78

CC1=C(O)C(=O)SC1
Rf [1]: 0.91

CC1CSC(C2NC(=O)C(c3ccccc3)NC2=O)N=C1C(=O)[O-].[Na+] (stereo not drawn)
Stability [2]: Unstable
Stability [3]: Unstable
Stability [4]: Unstable

CC1=C(C(=O)O)N2C(=O)[C@@H](NC(=O)[C@H](N)c3ccccc3)[C@H]2SC1 [CEPHALEXIN ANHYDROUS]
dose excreted at 24 h [5]: 99%
dose excreted at 24 h [6]: 99%

CC1=C(C(=O)O)N2C(=O)[C@@H](NC(=O)[C@H](N)c3ccccc3)[C@H]2SC1.O [CEPHALEXIN]
LD [7]: > 5000 mg/kg
